The values that follow come from USRE46511E1, “Fused pyrimidine derivatives for inhibition of tyrosine kinase activity” (HANMI SCIENCE CO., LTD., priority 2010, dated 2017).

Bounds are passed on as bounds.

Assay [1] deals with HCC827 (EGFR DelE746_A750). Nature of the assay: Inhibition test for growth of cancer cell expressing EGFR (SRB), HCC827.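 Further: cells in 96-well plates exposed to tenfold serial dilutions from 100 µM, fixed with trichloroacetic acid, SRB-stained, absorbance read at 540 nm, DMSO under 1%.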 The conditions noted are these: Homo sapiens, HCC827, 72 h, HCC827 cells, 72 hours, SRB; read-out: GI50 HCC827 EGFR DelE746_A750. It is filed as cell-based.
Assay [2] deals with NCI-H1975 (EGFR L858R/T790M). Nature of the assay: Inhibition test for growth of cancer cell expressing EGFR (MTS), NCI-H1975. The conditions noted are these: Homo sapiens; NCI-H1975 cells, 48 hours, MTS; read-out: GI50 NCI-H1975 EGFR L858R/T790M. It is filed as cell-based.

With `C=CC(=O)Nc1cccc(Oc2nc(Nc3ccc(N4CCC(N(C)C)CC4)cc3)nc3ccsc23)c1` [Example 38], the GI50 in assay [1] and in assay [2] was less than 50 nM each time.

As for `C=CC(=O)Nc1cccc(Oc2nc(Nc3ccc(CCN(C)C)cc3)nc3ccsc23)c1` [Example 191], the GI50 in assay [1] and in assay [2] was less than 50 nM each time.

For `C=CC(=O)Nc1cccc(Oc2nc(Nc3ccc(C(=O)OCCCN(C)C)cc3)nc3ccsc23)c1` [Example 93], the GI50 in assay [1] and in assay [2] was 50 to 100 nM in each case.

`C=CC(=O)Nc1cccc(Oc2nc(Nc3ccc(N4CCC(N5CCOCC5)CC4)c(Cl)c3)nc3ccsc23)c1` [Example 139]: the GI50 in assay [1] and in assay [2] was less than 50 nM in each case.

Take `C=CC(=O)Nc1cccc(Nc2nc(Nc3ccc(C4CCN(C)CC4)c(F)c3)nc3ccsc23)c1` [Example 216]: the GI50 in assay [1] and in assay [2] was less than 50 nM in each case.

Take `C=CC(=O)Nc1cccc(Oc2nc(Nc3ccc(OC4CCN(C)CC4)c(F)c3)nc3ccsc23)c1` [Example 136]: the GI50 in assay [1] and in assay [2] was less than 50 nM in each case.

In the case of `C=CC(=O)Nc1cccc(Oc2nc(Nc3ccc(OCCOC)cc3)nc3ccsc23)c1` [Example 61], the GI50 in assay [1] is 50 to 100 nM; in assay [2] it was less than 50 nM.

Regarding `C=CC(=O)Nc1cccc(Oc2nc(Nc3ccc(S(C)(=O)=O)cc3)nc3ccsc23)c1` [Example 69], the GI50 in assay [1] is 50 to 100 nM; in assay [2], less than 50 nM.

Regarding `C=CC(=O)Nc1cccc(Nc2nc(Nc3ccc(OCCN(C)C)cc3)nc3ccsc23)c1` [Example 211], the GI50 in assay [1] and in assay [2] was less than 50 nM each time.

For `C=CC(=O)Nc1cccc(Nc2nc(Nc3ccc(CCN(C)C)cc3)nc3ccsc23)c1` [Example 213], the figures for the GI50 in assay [1] and in assay [2] were 50 to 100 nM and less than 50 nM, respectively.

`C=CC(=O)Nc1cccc(Oc2nc(Nc3ccc(NC(=O)N4CCN(C)CC4)c(F)c3)nc3ccsc23)c1` [Example 201]: the GI50 was less than 50 nM in assay [1] and 50 to 100 nM in assay [2].

On to `C=CC(=O)Nc1cccc(Nc2nc(Nc3ccc(C4CCN(C)CC4)cc3)nc3ccsc23)c1` [Example 209], for which the GI50 in assay [1] and in assay [2] was less than 50 nM each time.

For `C=CC(=O)Nc1cccc(Sc2nc(Nc3ccc(C4CCN(C)CC4)c(F)c3)nc3ccsc23)c1` [Example 225], the GI50 in assay [1] and in assay [2] was less than 50 nM in each case.

Turning to `C=CC(=O)Nc1cccc(Oc2nc(Nc3ccc(/C=C/CN4CCCCC4)cc3)nc3ccsc23)c1` [Example 102], the GI50 is less than 50 nM in assay [1] and 50 to 100 nM in assay [2].

Turning to `C=CC(=O)Nc1cccc(Oc2nc(Nc3ccc(N4CCN(CC(F)(F)F)CC4)cc3)nc3ccsc23)c1` [Example 16], the GI50 in assay [1] is 50 to 100 nM; in assay [2], less than 50 nM.

Regarding `C=CC(=O)Nc1cccc(Oc2nc(Nc3ccc(N4CCN(CCOC)CC4)cc3)nc3ccsc23)c1` [Example 17], the GI50 in assay [1] and in assay [2] was less than 50 nM in each case.

For `C=CC(=O)Nc1cccc(Nc2nc(Nc3ccc(C4CCCN(C)C4)cc3)nc3ccsc23)c1` (stereo not drawn) [Example 210], the GI50 in assay [1] and in assay [2] was less than 50 nM each time.

`C=CC(=O)Nc1cccc(Oc2nc(Nc3ccc(N4CCN(S(=O)(=O)N(C)C)CC4)cc3)nc3ccsc23)c1` [Example 25]: the GI50 in assay [1] and in assay [2] was 50 to 100 nM in each case.

As for `C=CC(=O)Nc1cccc(Oc2nc(Nc3ccc(S(=O)(=O)NC4CC4)cc3)nc3ccsc23)c1` [Example 71], the values for the GI50 in assay [1] and in assay [2] were 50 to 100 nM and less than 50 nM, respectively.

Take `C=CC(=O)Nc1cccc(Oc2nc(Nc3ccc(N4CCC(N5CCCC5)CC4)c(F)c3)nc3ccsc23)c1` [Example 124]: the GI50 in assay [1] and in assay [2] was less than 50 nM each time.

Turning to `C=CC(=O)Nc1cccc(Oc2nc(Nc3ccc(CN(C)C)cc3C)nc3ccsc23)c1` [Example 205], the GI50 in assay [1] and in assay [2] was less than 50 nM throughout.

For the compound `C=CC(=O)Nc1cccc(Oc2nc(Nc3ccc(NC(=O)CCN4CCCC4)cc3)nc3ccsc23)c1` [Example 92], the GI50 in assay [1] and in assay [2] was less than 50 nM in each case.

As to `C=CC(=O)Nc1cccc(Sc2nc(Nc3ccc(N4CCOCC4)c(F)c3)nc3ccsc23)c1` [Example 224], the GI50 in assay [1] and in assay [2] was less than 50 nM in each case.

`C=CC(=O)Nc1cccc(Oc2nc(Nc3ccc(N4CCN(C(C)(C)C)CC4)cc3)nc3ccsc23)c1` [Example 12]: the GI50 in assay [1] and in assay [2] was less than 50 nM each time.

As to `C=CC(=O)Nc1cccc(Oc2nc(Nc3ccc4c(ccn4C)c3)nc3ccsc23)c1` [Example 111], the GI50 in assay [1] is 50 to 100 nM; in assay [2], less than 50 nM.

Regarding `C=CC(=O)Nc1cccc(Oc2nc(Nc3ccc(NC(=O)N4CCN(C)CC4)cc3)nc3ccsc23)c1` [Example 172], the GI50 in assay [1] was 50 to 100 nM; in assay [2] it was less than 50 nM.

With `C=CC(=O)Nc1cccc(Oc2nc(Nc3ccc4c(c3)CCCC(=O)N4C)nc3ccsc23)c1` [Example 108], the GI50 in assay [1] and in assay [2] was 50 to 100 nM throughout.

Take `C=CC(=O)Nc1cccc(Oc2nc(Nc3ccc(OCCN4CCOCC4)c(OC)c3)nc3ccsc23)c1` [Example 116]: the GI50 in assay [1] and in assay [2] was less than 50 nM throughout.

`C=CC(=O)Nc1cccc(Oc2nc(Nc3ccc(N4CC(C)OC(C)C4)c(F)c3)nc3ccsc23)c1` (stereo not drawn) [Example 123]: the GI50 in assay [1] and in assay [2] was 50 to 100 nM in each case.

In the case of `C=CC(=O)Nc1cccc(Oc2nc(Nc3ccc(N4CCC(N5CCOCC5)CC4)cc3)nc3ccsc23)c1` [Example 49], the GI50 in assay [1] and in assay [2] was less than 50 nM each time.

For `C=CC(=O)Nc1cccc(Oc2nc(Nc3ccc(N4CCC(N5CCCC5)CC4)c(Cl)c3)nc3ccsc23)c1` [Example 138], the GI50 in assay [1] and in assay [2] was less than 50 nM throughout.

In the case of `C=CC(=O)Nc1cccc(Oc2nc(Nc3ccc(OCCN4CCOCC4)c(F)c3)nc3ccsc23)c1` [Example 135], the figures for the GI50 in assay [1] and in assay [2] were 50 to 100 nM and less than 50 nM, respectively.

For `C=CC(=O)Nc1cccc(Oc2nc(Nc3ccc(N4CCN(C(=O)N5CCOCC5)CC4)cc3)nc3ccsc23)c1` [Example 22], the values for the GI50 in assay [1] and in assay [2] were less than 50 nM and 50 to 100 nM, respectively.

As for `C=CC(=O)Nc1cccc(Oc2nc(Nc3ccc(OCCOC)c(F)c3)nc3ccsc23)c1` [Example 131], the GI50 in assay [1] was 50 to 100 nM; in assay [2] it was less than 50 nM.

On to `C=CC(=O)Nc1cccc(Oc2nc(Nc3ccc(N4CCN(C(=O)CN(C)C)CC4)c(F)c3)nc3ccsc23)c1` [Example 119], for which the GI50 in assay [1] and in assay [2] was less than 50 nM in each case.

As for `C=CC(=O)Nc1cccc(Oc2nc(Nc3ccc(CCO)cc3)nc3ccsc23)c1` [Example 190], the GI50 in assay [1] and in assay [2] was less than 50 nM each time.

For `C=CC(=O)Nc1cccc(Oc2nc(Nc3ccc(C(=O)NC4CCN(C)CC4)c(OC)c3)nc3ccsc23)c1` [Example 118], the GI50 in assay [1] is less than 50 nM; in assay [2], 50 to 100 nM.

In the case of `C=CC(=O)Nc1cccc(Oc2nc(Nc3ccc(CCN4CCCCC4)cc3)nc3ccsc23)c1` [Example 98], the GI50 in assay [1] and in assay [2] was less than 50 nM in each case.

In the case of `C=CC(=O)Nc1cccc(Oc2nc(Nc3ccc(C(=O)N4CCN(S(=O)(=O)CC)CC4)c(Cl)c3)nc3ccsc23)c1` [Example 144], the GI50 was less than 50 nM in assay [1] and 50 to 100 nM in assay [2].
